Results published in US20240272101A1, “Direct Sampling from Phase-Separated Sample for Hydrophobicity Assessment” (DH Technologies Development Pte. Ltd., priority 2021, published 2024).

How the values were obtained:
[1] = known values, quoted for comparison; cited from earlier work
[2] = mass spectrometric hydrophobicity assessment: acoustic droplet ejection from water/pentanol two-phase system versus single-phase aqueous solution; assay type: physicochemical; details: MRM signal; 25 μL pentanol added to 25 μL water, 1 μg/mL analyte; FIGS. 7A and 7B
Description: A two-phase system was prepared by adding […] of pentanol to 25 μL of an aqueous solution of dextromethorphan. A SCIEX Triple Quad 6500+ mass spectrometer system having an acoustic droplet dispenser (shown schematically in FIG. 4) equipped with a two-layer acoustic calibration was employed to eject a plurality of droplets from the two-phase system into an OPI of the mass spectrometer for observing an MRM transition of the target analyte. Although in this example, a single MRM transition was monitored, in other cases, multiple MRM transitions of the target analyte can be monitored.
A single-phase aqueous sample was prepared as 1 μg/ml of dextromethorphan in 25 μL of water. A two-phase system was then formed by adding 25 μL of pentanol to 25 μL water in which 0.025 μg was mixed.
The above mass spectrometer was then utilized to obtain a series of measurements of the 272.2→215.1 MRM transition of the target analyte via sampling the single-phase solution and the two-phase system.
By way of comparison, a single-phase aqueous sample of adenosine was prepared by mixing adenosine with 25 μL of water to prepare a single-phase aqueous solution having a concentration of 1 μg/mL of adenosine. A two-phase system was prepared by adding 25 μL of pentanol to 25 μL aqueous single-phase system of adenosine having a concentration of 1 μg/mL adenosine. […]

| SMILES | log P [1] | relative ratio of the two-phase sampling signal versus the aqueous sampling signal [2] |
| --- | --- | --- |
| Nc1ncnc2c1ncn2[C@@H]1O[C@H](CO)[C@@H](O)[C@H]1O [adenosine] | −1.05 | less than that associated with dextromethorphan |
| COc1ccc2c(c1)[C@]13CCCC[C@@H]1[C@H](C2)N(C)CC3 [dextromethorphan] | +3.75 |  |
